Results: patent publication US10933033B2, “Composition for preventing or reducing nephrotoxicity and use thereof” (KOREA INSTITUTE OF SCIENCE AND TECHNOLOGY, priority 2018, dated 2021)

Legend:
LLC-PK1 cells [1] = assay: Protective effect against cisplatin nephrotoxicity, cell viability (CCK-8); format: cell-based; conditions: for effect on cell viability that had been reduced with cisplatin: 25 μM cisplatin, LLC-PK1, concentration-dependent; for viability at 5 µg/mL / viability at 10 µg/mL / viability at 25 µg/mL / viability at 50 µg/mL / viability at 100 µg/mL / viability at 10 µM: Sus scrofa, LLC-PK1
Protocol: First, LLC-PK1 cells were cultured in a Dulbecco's modified Eagle's medium (DMEM) (available from Cellgro, Manassas, Va., USA) in which 10% of fetal bovine serum (FBS), 100 units/mL of penicillin G, and 100 μg/mL of streptomycin were added, in an incubator (95% air and 5% CO2) maintained at about 37° C. The used FBS, penicillin G, and streptomycin were purchased from Gibco BRL Life Technologies Inc. The cultured LLC-PK1 cells were dispensed in a 96-well plate at a density of 1×10^4 cells in 100 μL of the same DMEM medium per each well and then stabilized for about 22 hours.
After 1 hour, absorbance at a detection wavelength of 450 nm was measured using a BIO-TEK microplate reader (available from Winooski, Vt., USA) to thereby measure cell viability.

LLC-PK1 cells [2] = assay: Image-based cell analysis of apoptosis (Annexin V / PI, Tali cytometer); conditions: for Apoptosis (%): 2 h pre-incubation, then 25 μM cisplatin for 24 h, LLC-PK1
Protocol: The cultured LLC-PK1 cells in DMEM were dispensed in a 6-well plate at a density of 4×10^5 cells in 3 mL of the same DMEM medium per each well and then incubated under the same conditions for 24 hours to stabilize the cells.
After incubation under the same conditions for about 24 hours, the cells were collected using trypsin, washed once with phosphate-buffered saline (PBS), resuspended in 100 μL of annexin-binding buffer ([…], 140 mM NaCl, […], pH 7.4) to reach a cell number of about 5×10^5 to about 5×10^6 cells/mL, and then mixed with 5 μL of Annexin V Alexa Fluor 488 and left in the dark at room temperature for about 20 minutes to fix and stain the cells. The resulting cell suspension was centrifuged to discard the supernatant and collect precipitated cell pellets. The precipitated cell pellets were resuspended in 100 μL of annexin-binding buffer to obtain a resuspension.
Next, 1 μL of propidium iodide (PI) was added to the resuspension, mixed thoroughly, and then left in the dark at room temperature for about 1 minute to about 5 minutes to fix and stain the cells. The stained cells were analyzed using a Tali Image-based cytometer and TaliPCApp (version 1.0) software.
Cells were divided into live cells (annexin V-negative/PI-negative), early apoptotic cells (annexin V-positive/PI-negative), and late apoptotic or necrotic cells (annexin V-positive/PI-positive), and total apoptotic cells were expressed as a ratio of annexin V-positive cells to PI-negative or PI-positive cells.

| Compound | effect on cell viability that had been reduced with cisplatin (LLC-PK1 cells [1]) | viability at 5 µg/mL (LLC-PK1 cells [1]) [%] | viability at 10 µg/mL (LLC-PK1 cells [1]) [%] | viability at 25 µg/mL (LLC-PK1 cells [1]) [%] | viability at 50 µg/mL (LLC-PK1 cells [1]) [%] | viability at 100 µg/mL (LLC-PK1 cells [1]) [%] | viability at 10 µM (LLC-PK1 cells [1]) [%] | apoptosis of the LLC-PK1 cells caused by cisplatin (LLC-PK1 cells [2]; 5 μM and 10 μM, 25 μM cisplatin) | Apoptosis (%) (LLC-PK1 cells [2]; 5 μM) | Apoptosis (%) (LLC-PK1 cells [2]; 10 μM) |
| --- | --- | --- | --- | --- | --- | --- | --- | --- | --- | --- |
| Oc1cccc2c(-c3ccc(O)c4c(O)cccc34)ccc(O)c12 [BNT, 1,1′-binaphthalene-4,4′,5,5′-tetrol] | significantly increase cell viability | 63.3 | 65.1 | 65.4 | 71.5 | 75.1 | – | – | – | – |
| O=C1CC2C(=C3c4c2ccc(O)c4[C@@H](O)C[C@@H]3O)c2cccc(O)c21 (some centres unmarked) [Hypoxylonol C] | significantly increase cell viability | 76.9 | 86.6 | 89.3 | 89.5 | 92.5 | ≥ 85 | – | – | – |
| O=C1CC2C(=C3c4c2ccc(O)c4[C@H](O)C[C@@H]3O)c2cccc(O)c21 (some centres unmarked) [Hypoxylonol F] | significantly increase cell viability | 86.4 | 90.9 | 92.2 | 92.3 | 94.4 | ≥ 90 | significantly reduced | 26.3 | 6.6 |
